# Measurements as given in patent US20040039014A1, “Methods and compounds for treating depression and other disorders” (NPS Pharmaceuticals, Inc., priority 1998, published 2004).
# Counter-ions that a name gives are not always drawn. Marks after values point to notes of the source that are not given here.
# Tests used:
# NMDA receptor = system: T1, NMDA receptor; assay: NMDA receptor assay (fura-2 cytosolic calcium in cultured rat cerebellar granule cells); format: cell-based; conditions: Table I, read-out: fura2 data IC50
# T1 construct: fura2 data IC50; rat cerebellar granule cells
# Description: All culture media, antibiotics, and enzymes, with the exception of fetal calf serum (Hyclone Laboratories, Logan, Utah), were purchased from Sigma Chemical Co., St. Louis, Mo. Fura-2/AM was obtained from Molecular Probes, Eugene, Oreg., and was prepared freshly in dimethylsulfoxide (DMSO) before use. Ionomycin (Calbiochem) was stored as a stock solution in DMSO. Nifedipine (Sigma) and nimodipine (RBI) were dissolved in absolute ethanol. […] All other agents were dissolved in phosphate-buffered saline (PBS), and adjusted to pH 7.4
# Preparation of Rat Cerebellar Granule Cell (RCGC) Cultures
# Briefly, primary cultures of cerebellar granule neurons were obtained from 8-day-old rats and plated onto squares of Aclar plastic coated with poly-L-lysine. The plastic squares were placed in 12-well culture plates, and ˜7.5×10^5 cells were added to each well. Cultures were maintained in Eagles's medium containing 25 mM KCl, 10% fetal calf serum, 2 mM glutamine, 100 μg/ml gentamicin, 50 U/ml penicillin, and 50 μg/ml streptomycin at 37° C. in a humid atmosphere of 5%CO2 in air for 24 hr before the addition of cytosine arabinoside (10 μM, final). No changes of culture medium were made until the cells were used for fluorescence recording 6-8 days after plating.
# Measurement of Cytosolic Calcium
# (“Ca^2+-free” buffer contained no added CaCl2 and 30 μM EGTA). The cells were then rinsed with the same buffer, lacking fura-2/AM, and maintained at room temperature until used for measurement of fluorescence, the Aclar squares were transferred into quartz cuvettes containing 2 ml of the HEPES buffer. The cuvette was then placed into a thermostatted holder equipped with a magnetic stirrer in a custom-built spectrofluorimeter (Biomedical Instrumentation Group, University of Pennsylvania, Philadelphia, Pa.). The size of the plastic Aclar square was such as to fit snugly in the cuvette when placed at a diagonal and therefore suspend itself over the spin bar. Fluorescence was measured using excitation and emission wavelengths of 340 and 510 nm, respectively. The amplitude of the evoked increase in fluorescence and subsequent inhibition were recorded and the concentration of [Ca^2+]i was calculated using the formula:
# [Ca^2+]=Kd (F-Fmin)/(Fmax-F) (Eq. 1)
# F=fluorescence amplitude evoked at a particular time point or concentration of compound;
# Fmin=minimum fluorescence determined after the addition of a 2.5 M TRIS/0.3 M EGTA solution;
# Fmax=maximum fluorescence determined following the addition of 7 mM ionomycin in DMSO; and […]
# [1] = target: T2, norepinephrine transporter site (Rattus norvegicus, UniProt Q63380); assay: Norepinephrine reuptake inhibition assay ([3H]nisoxetine binding, rat forebrain membranes); conditions: Table I; read-out: NE Uptake Ki
# T2 construct: tissue NovaScreen (performed the assay); host or cells: rat forebrain membranes
# T2 sequence (Q63380 1-617): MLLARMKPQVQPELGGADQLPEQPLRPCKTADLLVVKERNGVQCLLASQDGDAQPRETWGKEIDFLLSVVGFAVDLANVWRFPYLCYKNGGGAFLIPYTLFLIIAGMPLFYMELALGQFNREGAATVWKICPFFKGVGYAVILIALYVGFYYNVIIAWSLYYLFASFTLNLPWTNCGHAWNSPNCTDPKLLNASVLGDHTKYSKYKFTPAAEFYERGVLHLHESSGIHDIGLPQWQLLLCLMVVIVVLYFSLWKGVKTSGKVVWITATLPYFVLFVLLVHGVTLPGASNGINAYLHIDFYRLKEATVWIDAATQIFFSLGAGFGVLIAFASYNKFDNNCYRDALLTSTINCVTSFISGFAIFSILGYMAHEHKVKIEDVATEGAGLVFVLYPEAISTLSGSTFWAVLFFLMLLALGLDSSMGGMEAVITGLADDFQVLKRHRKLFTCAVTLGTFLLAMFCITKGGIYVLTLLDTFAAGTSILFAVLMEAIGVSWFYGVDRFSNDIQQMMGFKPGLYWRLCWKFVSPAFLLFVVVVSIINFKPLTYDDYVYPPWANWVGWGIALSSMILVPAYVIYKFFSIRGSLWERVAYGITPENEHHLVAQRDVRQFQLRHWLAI
# Description: (§1) Monoamine Transporter Minding Assays
# (§2) Monoamine transporter binding assays (reuptake inhibition assays) were performed by NovaScreen using standard radioligand binding assays. The transporter binding assays are described briefly below:
# Norepinephrine Reuptake Inhibition Assay
# Reactions were terminated by rapid vacuum filtration onto glass fiber filters.
# [2] = target: T3, serotonin transporter site (Rattus norvegicus, UniProt P31652); assay: Serotonin reuptake inhibition assay ([3H]citalopram binding, rat forebrain membranes); conditions: Table I; read-out: 5-HT Uptake Ki
# T3 construct: tissue NovaScreen (performed the assay); host or cells: rat forebrain membranes
# T3 sequence (P31652 whole entry): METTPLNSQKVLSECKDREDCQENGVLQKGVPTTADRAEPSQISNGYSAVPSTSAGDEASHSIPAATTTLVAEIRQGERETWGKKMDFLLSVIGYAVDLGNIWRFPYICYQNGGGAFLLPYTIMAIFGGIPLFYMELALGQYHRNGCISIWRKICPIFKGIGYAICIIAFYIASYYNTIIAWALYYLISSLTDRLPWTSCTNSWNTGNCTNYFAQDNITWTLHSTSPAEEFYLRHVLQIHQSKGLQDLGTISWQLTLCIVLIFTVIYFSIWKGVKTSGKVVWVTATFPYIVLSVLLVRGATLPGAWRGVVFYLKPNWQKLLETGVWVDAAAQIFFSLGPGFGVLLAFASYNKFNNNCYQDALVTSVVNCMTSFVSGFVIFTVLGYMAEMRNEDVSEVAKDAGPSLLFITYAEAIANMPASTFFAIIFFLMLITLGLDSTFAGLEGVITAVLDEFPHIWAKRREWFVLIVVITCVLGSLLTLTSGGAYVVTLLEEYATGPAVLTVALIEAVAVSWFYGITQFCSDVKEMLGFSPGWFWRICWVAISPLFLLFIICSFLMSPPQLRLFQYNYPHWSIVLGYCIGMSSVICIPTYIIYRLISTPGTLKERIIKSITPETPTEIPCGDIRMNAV
# Description: as §1, §2
# Serotonin Reuptake Inhibition Assay
# Rat forebrain membranes were incubated with 0.7 nM [^3H] citalopram, N-methyl, (70-87 Ci/mmol)in 50 mM Tris-HCl (pH 7.4), 120 mM NaCl, and 5 mM KCl at 25° C. for 60 minutes. […] Reactions were terminated by rapid vacuum filtration onto glass fiber filters.
# male NIH-Swiss mice = assay: Mouse forced-swim test (FST); format: in vivo
# Description: For the mouse and rat forced-swim tests, male pathogen-free NIH-Swiss mice (Harlan Sprague-Dawley) weighing between 22-25 g, and male pathogen-free Sprague-Dawley rats (Harlan Sprague-Dawley) weighing between 320-350 g were used. Animals were removed from the housing room to the testing area in their own cages and allowed to adapt to the new environment for at least 1 hour before testing. Mice were administered either drug (imipramine, 10 mg/kg i.p.; or Compound 60, various p.o or i.p. doses) or saline. Thirty minutes to 24 hours later, mice were placed individually in cylinders (diameter: 10 cm; height: 25 cm) filled with 6 cm of water (22-25° C.) for 6 minutes. The duration of immobility during the last 4 minutes of the 6 minute test was scored. A mouse was recorded as immobile when floating motionless or making only those movements necessary to keep its head above water. Results were expressed as the duration of immobility (seconds).
# Solubility = format: physicochemical; conditions: hydrochloride salt
smiles,measurement,setting,value
"CNCCC(c1cccc(F)c1)c1cccc(F)c1 [Compound 60, N-Methyl-3.,3-bis(3-fluorophenyl)propylamine hydrochloride]",IC50,NMDA receptor,416 nM
same,Ki,[1],> 10000 nM
same,Ki,[2],68 nM
same,Mean duration of immobility,"male NIH-Swiss mice; Table III, 5 mg/kg p.o. single dose, time post-dose 0.5, saline control 128.2",96.1 s
same,Mean duration of immobility,"male NIH-Swiss mice; Table III, 5 mg/kg p.o. single dose, time post-dose 1, saline control 128.2",38.8* sec
same,Mean duration of immobility,"male NIH-Swiss mice; Table III, 5 mg/kg p.o. single dose, time post-dose 2, saline control 128.2",66.2* sec
same,Mean duration of immobility,"male NIH-Swiss mice; Table III, 5 mg/kg p.o. single dose, time post-dose 4, saline control 128.2",66.9* sec
same,Mean duration of immobility,"male NIH-Swiss mice; Table III, 5 mg/kg p.o. single dose, time post-dose 6, saline control 128.2",76.8* sec
same,Mean duration of immobility,"male NIH-Swiss mice; Table III, 5 mg/kg p.o. single dose, time post-dose 24, saline control 128.2",124.8 s
same,Mean duration of immobility,"male NIH-Swiss mice; Table IV, 0.625 mg/kg single oral dose 60 minutes prior to testing, saline control 129.7",153.3 s
same,Mean duration of immobility,"male NIH-Swiss mice; Table IV, 1.25 mg/kg single oral dose 60 minutes prior to testing, saline control 129.7",72.3* sec
same,Mean duration of immobility,"male NIH-Swiss mice; Table IV, 2.5 mg/kg single oral dose 60 minutes prior to testing, saline control 129.7",64.5* sec
same,Mean duration of immobility,"male NIH-Swiss mice; Table IV, 5 mg/kg single oral dose 60 minutes prior to testing, saline control 129.7",56.6* sec
same,Mean duration of immobility,"male NIH-Swiss mice; Table IV, 10 mg/kg single oral dose 60 minutes prior to testing, saline control 129.7",68.7* sec
same,Mean duration of immobility,"male NIH-Swiss mice; Table V, 0.625 mg/kg single i.p. dose 30 minutes prior to testing, saline control 137.8",139.5 s
same,Mean duration of immobility,"male NIH-Swiss mice; Table V, 1.25 mg/kg single i.p. dose 30 minutes prior to testing, saline control 137.8",85.6* sec
same,Mean duration of immobility,"male NIH-Swiss mice; Table V, 2.5 mg/kg single i.p. dose 30 minutes prior to testing, saline control 137.8",68.5* sec
same,Mean duration of immobility,"male NIH-Swiss mice; Table V, 5 mg/kg single i.p. dose 30 minutes prior to testing, saline control 137.8",89.6* sec
same,Mean duration of immobility,"male NIH-Swiss mice; Table V, 10 mg/kg single i.p. dose 30 minutes prior to testing, saline control 137.8",106.1 s
same,time of peak effect (reduction in the duration of immobility) post-dosing,"male NIH-Swiss mice; mouse FST, single dose 5 mg/kg p.o.",60 min
same,solubility,"Solubility; ethanol, organic solvent or mixture, EtOH",1000 mg/mL
same,solubility,"Solubility; water, H2O",2000 mg/mL
